Results as given in PubChem BioAssay AID212 (DTP/NCI, 2004).
Several values for one entry are separate records, joined by “and”; a condition that tells them apart may be missing. Identical values can stand only once. Inconclusive results are not listed.

Tested on: BDF1 mice, colon carcinoma 38 sc, T/C %
Experiment: NCI In Vivo Anticancer Drug Screen. Data for tumor model Colon Carcinoma 38 (subcutaneous) in B6D2F1 (BDF1) mice
Conditions: endpoint: median tumor weight (est.), higher = larger tumour
Outline: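 T/C readout: treated group (T) measurement over vehicle control group (C) measurement. Endpoint is survival or tumor size in mice bearing a transplanted tumor.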

[1] = dose: 4.0 mg/kg/injection, schedule: Q07DX002 (ip), vehicle: saline
[2] = dose: 8.0 mg/kg/injection, schedule: Q07DX002 (ip), vehicle: saline
[3] = dose: 16.0 mg/kg/injection, schedule: Q07DX002 (ip), vehicle: saline

O=CC(NC(=O)N(CCCl)N=O)C(O)C(O)C(O)CO (stereo unspecified)
T/C (dose: 0.47 mg/kg/injection, schedule: Q07DX003 (ip), vehicle: saline): 102 % of control | T/C (dose: 0.94 mg/kg/injection, schedule: Q07DX003 (ip), vehicle: saline): 98 % of control | T/C (dose: 1.5 mg/kg/injection, schedule: Q07DX002 (ip), vehicle: saline): 105 % of control | T/C (dose: 3.75 mg/kg/injection, schedule: Q07DX003 (ip), vehicle: saline): 68 % of control | T/C [1]: 92 % of control | T/C (dose: 6.0 mg/kg/injection, schedule: Q07DX003 (ip), vehicle: saline): 68 % of control | T/C (dose: 7.5 mg/kg/injection, schedule: Q07DX003 (ip), vehicle: saline): 68 % of control | T/C [2]: 57 % of control | T/C (dose: 12.0 mg/kg/injection, schedule: Q07DX003 (ip), vehicle: saline): 82 % of control | T/C (dose: 15.0 mg/kg/injection, schedule: Q07DX003 (ip), vehicle: saline): 43 % of control | T/C [3]: 43 % of control | T/C (dose: 24.0 mg/kg/injection, schedule: Q07DX003 (ip), vehicle: saline): 57 % of control

CCOC(=O)C(CC(C)C)NC(=O)C(Cc1ccc(N(CCCl)CCCl)cc1)NC(C)=O (stereo unspecified)
T/C (dose: 32.0 mg/kg/injection, schedule: Q07DX002 (ip), vehicle: saline with Tween-80): 53 % of control | T/C (dose: 32.0 mg/kg/injection, schedule: Q07DX003 (ip), vehicle: saline with Tween-80): 76 % of control | T/C (dose: 64.0 mg/kg/injection, schedule: Q07DX002 (ip), vehicle: saline with Tween-80): 36 % of control | T/C (dose: 64.0 mg/kg/injection, schedule: Q07DX003 (ip), vehicle: saline with Tween-80): 66 % of control | T/C (dose: 128.0 mg/kg/injection, schedule: Q07DX003 (ip), vehicle: saline with Tween-80): 82 % of control

CC/C(=C(/CC)c1ccc(O)cc1)c1ccc(O)cc1
T/C (dose: 12.5 mg/kg/injection, schedule: Q07DX003 (ip), vehicle: saline with Tween-80): 96 % of control | T/C (dose: 25.0 mg/kg/injection, schedule: Q07DX003 (ip), vehicle: saline with Tween-80): 153 % of control | T/C (dose: 100.0 mg/kg/injection, schedule: Q07DX003 (ip), vehicle: saline with Tween-80): 76 % of control | T/C (dose: 200.0 mg/kg/injection, schedule: Q07DX003 (ip), vehicle: saline with Tween-80): 179 % of control

C=C(C)[C@H]1Cc2c(ccc3c2O[C@@H]2COc4cc(OC)c(OC)cc4[C@@H]2C3=O)O1
T/C (dose: 2.0 mg/kg/injection, schedule: Q07DX003 (ip), vehicle: saline with Tween-80): 230 % of control | T/C (dose: 8.0 mg/kg/injection, schedule: Q07DX003 (ip), vehicle: saline with Tween-80): 98 % of control

CC1(O)C=CC(=O)C=C1
T/C (dose: 50.0 mg/kg/injection, schedule: Q07DX002 (ip), vehicle: water): 114 % of control

Cc1cc(=O)n2c3c(c4c(cc13)c(CN(C)C)cc(=O)n4C)OC2
T/C (dose: 25.0 mg/kg/injection, schedule: Q07DX002 (ip), vehicle: saline with Tween-80): 73 % of control | T/C (dose: 50.0 mg/kg/injection, schedule: Q07DX002 (ip), vehicle: saline with Tween-80): 56 % of control | T/C (dose: 100.0 mg/kg/injection, schedule: Q07DX002 (ip), vehicle: saline with Tween-80): 45 % of control

CN1CCN(Cc2nc3cccc4c3c([n+]2[O-])-c2ccccc2-4)CC1
T/C (dose: 3.12 mg/kg/injection, schedule: Q07DX002 (ip), vehicle: saline with Tween-80): 72 % of control | T/C (dose: 6.25 mg/kg/injection, schedule: Q07DX002 (ip), vehicle: saline with Tween-80): 58 % of control | T/C (dose: 12.5 mg/kg/injection, schedule: Q07DX002 (ip), vehicle: saline with Tween-80): 81 % of control and 98 % of control and 106 % of control | T/C (dose: 200.0 mg/kg/injection, schedule: Q07DX002 (ip), vehicle: saline with Tween-80): 65 % of control and 75 % of control | T/C (dose: 400.0 mg/kg/injection, schedule: Q07DX002 (ip), vehicle: saline with Tween-80): 79 % of control

COc1cc([C@@H]2c3cc4c(c(O)c3C[C@H]3COC(=O)[C@@H]32)OCO4)cc(OC)c1OC
T/C (dose: 1.0 mg/kg/injection, schedule: Q07DX002 (ip), vehicle: saline): 81 % of control | T/C (dose: 2.0 mg/kg/injection, schedule: Q07DX002 (ip), vehicle: saline): 67 % of control | T/C [1]: 76 % of control | T/C [2]: 73 % of control | T/C [3]: 70 % of control

CCCC(=O)OC1C=C2N3C(=O)C4CC56C(=CC(OC(C)=O)C7OC75)N4C(=O)C3CC26C2OC12 (stereo unspecified)
T/C (dose: 1.25 mg/kg/injection, schedule: Q07DX002 (ip), vehicle: Klucel (hydroxypropylcellulose) (HPC)): 111 % of control | T/C (dose: 2.5 mg/kg/injection, schedule: Q07DX002 (ip), vehicle: Klucel (hydroxypropylcellulose) (HPC)): 92 % of control | T/C (dose: 5.0 mg/kg/injection, schedule: Q07DX002 (ip), vehicle: Klucel (hydroxypropylcellulose) (HPC)): 102 % of control | T/C (dose: 10.0 mg/kg/injection, schedule: Q07DX002 (ip), vehicle: Klucel (hydroxypropylcellulose) (HPC)): 76 % of control
